Source: patent US10597388B2, “Pyridazinone herbicides” (FMC CORPORATION, priority 2014, dated 2020)

Columns and labels:
Assay type in all cases: in vivo
[1] = test system: oat, wild (wild oat, Avena fatua); experiment: Test C greenhouse herbicide test, postemergence
Summary of the method: (§1)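 Plants grown in potting mix of peat moss, vermiculite, wetting agent and starter nutrients were sprayed postemergence at 2 to 18 cm height (1- to 4-leaf stage). After 13 to 15 d in the greenhouse, injury was visually rated against untreated controls on a 0–100 scale (0 no effect, 100 complete control).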

kochia (Kochia scoparia) = experiment: Test C greenhouse herbicide test, postemergence
Summary of the method: as §1

[2] = test system: galium (catchweed bedstraw, Galium aparine); experiment: Test A greenhouse herbicide test, postemergence
Summary of the method: (§2)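 Seedlings in a loam soil and sand mix received formulated compound postemergence at the one- to two-leaf stage. Greenhouse holding lasts approximately 10 d, then injury is scored visually relative to untreated plants, 0 meaning no effect and 100 complete control.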

[3] = test system: blackgrass (Alopecurus myosuroides); experiment: Test A greenhouse herbicide test, postemergence
Summary of the method: as §2

[4] = test system: velvetleaf (Abutilon theophrasti); experiment: Test C greenhouse herbicide test, pre- and postemergence
Text: (§3) Seeds of plant species selected from blackgrass (Alopecurus myosuroides), ryegrass, Italian (Italian ryegrass, Lolium multiflorum), wheat (winter wheat, Triticum aestivum), galium (catchweed bedstraw, Galium aparine), corn (Zea mays), large crabgrass, large (large crabgrass, Digitaria sanguinalis), foxtail, giant (giant foxtail, Setaria faberii), johnsongrass (Sorghum halepense), lambsquarters (Chenopodium album), morningglory (Ipomoea coccinea), nutsedge, yellow (yellow nutsedge, Cyperus esculentus), pigweed (Amaranthus retroflexus), ragweed (common ragweed, Ambrosia elatior), soybean (Glycine max), barnyardgrass (Echinochloa crus-galli), oilseed rape (Brassica napus), waterhemp (common waterhemp, Amaranthus rudis), and velvetleaf (Abutilon theophrasti) were planted into a blend of loam soil and sand and treated preemergence with test chemicals formulated in a non-phytotoxic solvent mixture which included a surfactant.
(§4) At the same time, plants selected from these crop and weed species and also chickweed (common chickweed, Stellaria media), kochia (Kochia scoparia), and oat, wild (wild oat, Avena fatua), were planted in pots containing Redi-Earth® planting medium (Scotts Company, 14111 Scottslawn Road, Marysville, Ohio 43041) comprising spaghnum peat moss, vermiculite, wetting agent and starter nutrients and treated with postemergence applications of test chemicals formulated in the same manner. Plants ranged in height from 2 to 18 cm (1- to 4-leaf stage) for postemergence treatments. Treated plants and controls were maintained in a greenhouse for 13 to 15 d, after which time all species were compared to controls and visually evaluated. Plant response ratings, summarized in Table C, are based on a scale of 0 to 100 where 0 is no effect and 100 is complete control. A dash (-) response means no test result.

[5] = test system: galium (catchweed bedstraw, Galium aparine); experiment: as above
Text: as §3, §4

[6] = test system: blackgrass (Alopecurus myosuroides); experiment: as above
Text: as §3, §4

[7] = test system: ragweed (common ragweed, Ambrosia elatior); experiment: as above
Text: as §3, §4

soybean (Glycine max) = experiment: as above
Text: as §3, §4

[8] = test system: ryegrass, Italian (Italian ryegrass, Lolium multiflorum); experiment: as above
Text: as §3, §4

[9] = test system: barnyardgrass (Echinochloa crus-galli); experiment: as above
Text: as §3, §4

[10] = test system: nutsedge, yellow (yellow nutsedge, Cyperus esculentus); experiment: as above
Text: as §3, §4

[11] = test system: pigweed (Amaranthus retroflexus); experiment: as above
Text: as §3, §4

[12] = Postemergence, 31 g ai/ha, scale 0 to 100 (0 no effect, 100 complete control)
[13] = Postemergence, 62 g ai/ha, 0 to 100 scale (0 no effect, 100 complete control)
[14] = Postemergence, 250 g ai/ha, scale 0 to 100, 0 no effect, 100 complete control, 13 to 15 d
[15] = postemergence, 125 g ai/ha, scale 0 to 100, 0 no effect, 100 complete control
[16] = 125 g ai/ha, 0 to 100 scale where 0 is no effect and 100 is complete control
[17] = 500 g ai/ha, visual rating after approx. 10 d, 0 to 100 scale (0 no effect, 100 complete control)
[18] = Preemergence, 31 g ai/ha, scale 0 to 100, 0 is no effect, 100 is complete control
[19] = Preemergence, 62 g ai/ha, scale 0 to 100, 0 is no effect, 100 is complete control
[20] = Preemergence, 125 g ai/ha, scale 0 to 100, 0 is no effect, 100 is complete control
[21] = Preemergence, 250 g ai/ha, scale 0 to 100, 0 no effect, 100 complete control

COC(=O)Oc1c(C)nn(C)c(=O)c1-c1ccc(Br)c2ccccc12 [Compound 145]
Plant response rating, Oat, Wild [1, 12]: 95
Oat, Wild plant response rating [1, 13]: 95
Plant response rating, Oat, Wild [1, 14]: 100
Oat, Wild plant response rating [1, 15]: 95
Plant response rating, Kochia (kochia (Kochia scoparia); [12]): 95
Kochia plant response rating (kochia (Kochia scoparia); [13]): 98
Plant response rating, Kochia (kochia (Kochia scoparia); [14]): 100
Kochia plant response rating (kochia (Kochia scoparia); [15]): 100
Plant response rating, Galium [2, 16]: 100
Plant response rating, Galium [2, 17]: 100
Plant response rating, Blackgrass [3, 16]: 40
Plant response rating, Blackgrass [3, 17]: 80
Plant response rating, Velvetleaf [4, 12]: 85
Velvetleaf plant response rating [4, 13]: 90
Plant response rating, Velvetleaf [4, 14]: 100
Plant response rating, Velvetleaf [4, 18]: 40
Plant response rating, Velvetleaf [4, 19]: 85
Plant response rating, Velvetleaf [4, 20]: 95
Velvetleaf plant response rating [4, 21]: 100
Velvetleaf plant response rating [4, 15]: 98
Plant response rating, Galium [5, 12]: 90
Galium plant response rating [5, 13]: 95
Plant response rating, Galium [5, 14]: 100
Plant response rating, Galium [5, 18]: 90
Plant response rating, Galium [5, 19]: 98
Plant response rating, Galium [5, 20]: 100
Galium plant response rating [5, 21]: 98
Galium plant response rating [5, 15]: 98
Plant response rating, Blackgrass [6, 12]: 5
Blackgrass plant response rating [6, 13]: 0
Plant response rating, Blackgrass [6, 14]: 90
Plant response rating, Blackgrass [6, 18]: 10
Plant response rating, Blackgrass [6, 19]: 30
Plant response rating, Blackgrass [6, 20]: 60
Blackgrass plant response rating [6, 21]: 60
Blackgrass plant response rating [6, 15]: 30
Plant response rating, Ragweed [7, 12]: 0
Ragweed plant response rating [7, 13]: 0
Plant response rating, Ragweed [7, 14]: 25
Plant response rating, Ragweed [7, 18]: 55
Plant response rating, Ragweed [7, 19]: 65
Plant response rating, Ragweed [7, 20]: 85
Ragweed plant response rating [7, 21]: 90
Ragweed plant response rating [7, 15]: 5
Plant response rating, Soybean (soybean (Glycine max); [12]): 40
Soybean plant response rating (soybean (Glycine max); [13]): 40
Plant response rating, Soybean (soybean (Glycine max); [14]): 70
Plant response rating, Soybean (soybean (Glycine max); [18]): 0
Plant response rating, Soybean (soybean (Glycine max); [19]): 55
Plant response rating, Soybean (soybean (Glycine max); [20]): 75
Soybean plant response rating (soybean (Glycine max); [21]): 80
Soybean plant response rating (soybean (Glycine max); [15]): 55
Plant response rating, Ryegrass, Italian [8, 12]: 5
Ryegrass, Italian plant response rating [8, 13]: 15
Plant response rating, Ryegrass, Italian [8, 14]: 40
Plant response rating, Ryegrass, Italian [8, 18]: 100
Plant response rating, Ryegrass, Italian [8, 19]: 100
Plant response rating, Ryegrass, Italian [8, 20]: 100
Ryegrass, Italian plant response rating [8, 21]: 100
Ryegrass, Italian plant response rating [8, 15]: 30
Plant response rating, Barnyardgrass [9, 12]: 20
Barnyardgrass plant response rating [9, 13]: 15
Plant response rating, Barnyardgrass ([9]; Postemergence, 125 g ai/ha, scale 0 to 100, 0 is no effect, 100 is complete control): 30
Plant response rating, Barnyardgrass [9, 14]: 70
Plant response rating, Barnyardgrass [9, 18]: 10
Plant response rating, Barnyardgrass [9, 19]: 35
Plant response rating, Barnyardgrass [9, 20]: 75
Barnyardgrass plant response rating [9, 21]: 95
Plant response rating, Nutsedge, Yellow [10, 12]: 70
Nutsedge, Yellow plant response rating [10, 13]: 90
Plant response rating, Nutsedge, Yellow [10, 14]: 95
Plant response rating, Nutsedge, Yellow [10, 18]: 35
Plant response rating, Nutsedge, Yellow [10, 19]: 85
Plant response rating, Nutsedge, Yellow [10, 20]: 95
Nutsedge, Yellow plant response rating [10, 21]: 90
Nutsedge, Yellow plant response rating [10, 15]: 85
Plant response rating, Pigweed [11, 12]: 70
Pigweed plant response rating [11, 13]: 100
Plant response rating, Pigweed [11, 14]: 100
Plant response rating, Pigweed [11, 18]: 70
Plant response rating, Pigweed [11, 19]: 98
Plant response rating, Pigweed [11, 20]: 100
Pigweed plant response rating [11, 21]: 100
Pigweed plant response rating [11, 15]: 75
